Experimental data as given in the NIST ThermoML archive (doi:10.1016/j.tca.2010.03.027).
Numbers after ± are expanded uncertainties.

Legend:
[1] = Crystal; for Normal melting temperature: DTA
[2] = xn = mol fraction of the nth substance listed; settings: 293 K, 101 kPa, Crystal, X-ray diffraction

mass density ([1]; 293 K, 101.3 kPa, X-ray diffraction) | Normal melting temperature [1] | mass density ([2]; x1 = 0.15) | mass density ([2]; x1 = 0.3) | mass density ([2]; x1 = 0.45) | mass density ([2]; x1 = 0.6) | mass density ([2]; x1 = 0.75) | mass density ([2]; x1 = 0.9) | mass density ([2]; x1 = 1) | SMILES
5060 ± 2 kg/m3 | 738 ± 1 °C |  |  |  |  |  |  |  | [Br-].[Br-].[Ca+2] [calcium bromide]
 | 770 ± 1 °C |  |  |  |  |  |  |  | [Ca+2].[Cl-].[Cl-] [calcium chloride]
 |  | 3536 ± 2 kg/m3 | 3836 ± 2 kg/m3 | 4112 ± 2 kg/m3 | 4371 ± 2 kg/m3 | 4628 ± 2 kg/m3 | 4861 ± 2 kg/m3 | 5060 ± 2 kg/m3 | [Br-].[Br-].[Ca+2] [calcium bromide] + [Ca+2].[Cl-].[Cl-]
